Laboratory results: paper PMC12266748, “A Xanthine Derivative With Novel Heat Shock Protein 90‐Alpha Inhibitory and Senolytic Properties” (Aging Cell, 2025)
Like-named read-outs stand apart in the source and are kept apart here.

What was measured:
IMR90 cells = test: Immunofluorescence of Cytochrome C / mitochondria colocalization in senescent IMR90; type: cell-based, Homo sapiens; conditions: senescent IMR90 (PD21), 48 h, K5 25 μM, Dasatinib 1 μM; Vehicle OR = 0.913
Experimental: Treated/untreated senescent IMR90 and MCF7 cells were fixed, permeabilized, and stained following suppliers' recommendations. Images were acquired using an Olympus IX83 research inverted microscope (IF) and a phase microscopy Nikon ECLIPSE Ei R (IHC) at 40× MAG.
Immunofluorescence staining. Treated/untreated IMR90 and MCF7 cells were cultured in LabTek II chamber slides (Nunc, Biosigma). At the final time point, cells were stained with 500 nM MitoTracker Orange (Thermo Fisher Scientific) for 30 min at 37°C and then fixed in 4% PFA (Merck) for 10 min, RT, and permeabilized with 0.1% Triton solution (Merck) for 30 min at RT. Samples were blocked in 5% BSA for 90 min, incubated overnight at 4°C with primary antibody against Cytochrome C (1:50, RbMAb, Abcam), and 1h at RT with secondary antibody Alexa Fluor 488 goat anti-Rb (1:200, Thermo Fisher Scientific). Nuclei were stained with DAPI (Cell Signaling) for 10 min at RT, and ProLong Glass Antifade Mountant (Thermo Fisher Scientific) was used to seal coverslips. Images were acquired using an Olympus IX83 research inverted microscope at 40X magnifications.

[1] = Mouse plasma exposure after oral and intravenous administration, brain and kidney distribution; type: in vivo, CD1 mouse; conditions: for Kp: CD1, mouse, relative to plasma; for half-life: read-out: T ½ in plasma
Experimental: APHAD S.r.l (Buccinasco, MI, Italy) performed all evaluations. Detailed protocols are reported in the extended methods section.
Determination of the mouse plasma exposure of K5 after oral […] and intravenous (IV) administration. Determination of K5 distribution in brain and kidney after IV administration. Weighed tissues were homogenized with a Precellys Evolution Homogenizer 1g/5mL of 20 mM ammonium formate buffer pH 6.5 using 3 cycles 25 sec at a speed of 7600 rpm. Plasma or tissue was added to ACN containing Verapamil as Internal standard (0.1 µM) in a […]. Samples were shaken for 10 min at 300 rpm at RT and centrifuged for 15 min at 10°C at 4700 rpm. Working solutions (WS) for the calibration curves and QC samples were prepared by diluting ACN in the range 10-20000ng/mL range. Verapamil was diluted in ACN to reach the final concentration of 0.1 µM (WS_IS). Samples were analyzed on an Acquity UPLC (Waters) coupled with an API 3200 Triple Quadrupole ABSciex. Non-compartmental analysis was applied, and the following pharmacokinetic (PK) parameters were evaluated for each subject or group of subjects: maximum plasma concentration (Cmax), plasma concentration at last timepoint (Clast), time of maximum plasma concentration (Tmax), AUC from time zero to the time of the last quantifiable plasma concentration (AUC0-last), AUC from time zero extrapolated to infinity (AUCinf), mean residence time (MRT), half-life (T½). AUCs were calculated using a linear trapezoidal rule, and a uniform weight was performed as the first general approach. Graphical concentration-time curves are produced after Log transformation (PK Solver 2.0, Excel 2007 Microsoft add-in). The ke was estimated from the terminal part of the log-concentration time plot, which included at least three data points excluding the Cmax. If the terminal phase regression based on R2 was less than 0.85, then the T½ and the AUC0-inf were not reported.

[2] = plasma, oral 30 mg/kg, CD1 mouse

Compound: Cc1ccccc1-n1c(=O)n(Cc2ccccc2)c(=O)c2[nH]cnc21 [Compound K5, 1-benzyl-3-(2-methylphenyl)-7H-purine-2,6-dione]
- Cytochrome C / mitochondria colocalization, Overlap R (OR) (IMR90 cells): 0.454
- Kp ([1]; brain, IV 5 mg/kg, read-out: distribution in the brain): 0.35
- Kp ([1]; kidney, IV 5 mg/kg, read-out: distribution in the kidney): 1.31
- distribution volume ([1]; IV 5 mg/kg, CD1 mouse): high
- time of Cmax ([1]; oral 30 mg/kg, CD1 mouse): 10 min
- clearance ([1]; plasma, IV 5 mg/kg, CD1 mouse): 38 mL/min/kg
- half-life ([1]; plasma, IV 5 mg/kg, CD1 mouse): 13 min
- bioavailability ([1]; plasma, oral 30 mg/kg vs IV 5 mg/kg, CD1 mouse): 54%
- Cmax [1, 2]: 2800 ng/mL
- half-life [1, 2]: ~300 min
- MRT ([1]; plasma, oral 30 mg/kg, CD1 mouse, read-out: mean residence time (MRT) (converted)): ~5 h
